Results published in patent US10772893B2, “2-(morpholin-4-yl)-1,7-naphthyridines” (BAYER PHARMA AKTIENGESELLSCHAFT, priority 2014, dated 2020).
Structures can show the parent of a compound that is named as a salt.

Key:
Test in all cases: Proliferation assay, crystal violet staining
DU145 cells = settings: Homo sapiens, DU-145, 96 h, read-out: Inhibition of DU145 cell proliferation, DU145 cells, 4 days incubation
Description: (§1) After 24 hours, the cells of one plate (zero plate) were dyed with crystal violet (see below), whereas the medium of the other plates was replaced with fresh culture medium (200 μl) to which the test substances were added in various concentrations (0 μM, and also in the range of 0.001-10 μM; the final concentration of the solvent dimethyl sulphoxide was 0.1 or 0.5%). The cells were incubated for 4 days in the presence of the test substances. […] After washing the fixed cells three times with water, the plates were dried at room temperature. The cells were stained by adding 100 μl/measurement point of a 0.1% strength crystal violet solution (pH adjusted to pH 3 by adding acetic acid). After washing the cells three times with water, the plates were dried at room temperature. The dye was dissolved by adding 100 μl/measurement point of a 10% strength acetic acid solution. […] The percentage change in cell growth was calculated by normalizing the measured values to the absorbance values of the zero plate (=0%) and the absorbance of the untreated (0 W) cells (=100%). The IC50 values were determined by means of a four parameter fit.

Caco-2 cells = type: cell-based; settings: Homo sapiens, Caco-2, 96 h, 4 days incubation, read-out: Inhibition of Caco-2 cell proliferation
Description: as §1

HeLa cells = settings: Homo sapiens, 96 h, read-out: Inhibition of HeLa cell proliferation, HeLa cells, 4 days incubation
HeLa-MaTu-ADR cells = type: cell-based; settings: Homo sapiens, 96 h, 4 days incubation, read-out: Inhibition of HeLa-MaTu-ADR cell proliferation
Description: as §1

NCI-H460 cells = settings: Homo sapiens, NCI-H460, 96 h, read-out: Inhibition of NCI-H460 cell proliferation, NCI-H460 cells, 4 days incubation
Description: as §1

| IC50 (DU145 cells) [nM] | IC50 (Caco-2 cells) [nM] | IC50 (HeLa cells) [nM] | IC50 (HeLa-MaTu-ADR cells) [nM] | IC50 (NCI-H460 cells) [nM] | Structure (SMILES) |
| --- | --- | --- | --- | --- | --- |
| 518 | 822 | 613 | 940 | 399 | Cn1nccc1-c1cc(N2CCOCC2)nc2c(-c3ccn[nH]3)nccc12 [Example 348, 4-(1-methyl-1H-pyrazol-5-yl)-2-(morpholin-4-yl)-8-(1H-pyrazol-5-yl)-1,7-naphthyridine] |
| 104 | 286 | 157 | 291 | 81.7 | Cc1ccc(-c2cc(N3CCOC[C@H]3C)nc3c(-c4ccn[nH]4)nccc23)cn1 [Example 88, 2-[(3R)-3-methylmorpholin-4-yl]-4-(6-methylpyridin-3-yl)-8-(1H-pyrazol-5-yl)-1,7-naphthyridine] |
| 368 | 2190 |  | > 3000 | 641 | CN=S(C)(=O)c1ccc(-c2cc(N3CCOCC3)nc3c(-c4ccn[nH]4)nccc23)cc1 (stereo not shown) [Example 5, 4-(4-(N,S-dimethylsulfonimidoyl)phenyl)-2-[morpholin-4-yl]-8-(1H-pyrazol-5-yl)-1,7-naphthyridine] |
| 1110 | > 3000 | 1250 | > 3000 | 685 | C[C@@H]1COCCN1c1cc(-c2cccc(S(C)(=N)=O)c2)c2ccnc(-c3ccn[nH]3)c2n1 (stereo partly drawn) [Example 31, 3-[2-((R)-3-methylmorpholin-4-yl)-8-(2H-pyrazol-3-yl)-[1,7]naphthyridine-4-yl]phenyl-S-methylsulphoximide] |
| 748 | 631 | 181 | 1790 | 59 | Cc1nc(S(C)(=O)=O)ccc1-c1cc(N2CCOC[C@H]2C)nc2c(-c3ccn[nH]3)nccc12 [Example 73, 4-[2-methyl-6-(methylsulfonyl)pyridin-3-yl]-2-[(3R)-3-methylmorpholin-4-yl]-8-(1H-pyrazol-5-yl)-1,7-naphthyridine] |
| 730 | 1980 | 998 | 2170 | 691 | c1cc2c(C3CCOCC3)cc(N3CCOCC3)nc2c(-c2cc[nH]n2)n1 [Example 60, 2-(morpholin-4-yl)-8-(1H-pyrazol-5-yl)-4-(tetrahydro-2H-pyran-4-yl)-1,7-naphthyridine] |
| 313 | 637 | 225 | 594 | 233 | C[C@@H]1COCCN1c1cc(-c2ccc(F)nc2F)c2ccnc(-c3ccn[nH]3)c2n1 [Example 228, 4-(2,6-difluoropyridin-3-yl)-2-[(3R)-3-methylmorpholin-4-yl]-8-(1H-pyrazol-5-yl)-1,7-naphthyridine] |
| 1010 | 653 |  | > 3000 | 269 | C[C@@H]1COCCN1c1cc(S(C)(=O)=O)c2ccnc(-c3ccn[nH]3)c2n1 [Example 33, 2-[(3R)-3-methylmorpholin-4-yl]-4-(methylsulfonyl)-8-(1H-pyrazol-5-yl)-1,7-naphthyridine] |
| 30.5 | 492 | 248 | 522 | 90.6 | C[C@@H]1COCCN1c1cc(N2CCOCC2)c2ccnc(-c3ccn[nH]3)c2n1 [Example 145, 2-[(3R)-3-methylmorpholin-4-yl]-4-(morpholin-4-yl)-8-(1H-pyrazol-5-yl)-1,7-naphthyridine] |
| 146 | 549 | 383 | 791 | 153 | C[C@@H]1COCCN1c1cc(N=S2(=O)CCCC2)c2ccnc(-c3ccn[nH]3)c2n1 [Example 137, N-{2-[(3R)-3-methylmorpholin-4-yl]-8-(1H-pyrazol-5-yl)-1,7-naphthyridin-4-yl}tetrahydro-1H-1λ^4-thiophen-1-imine 1-oxide] |
| 915 | 1540 |  | 1530 | 308 | CSc1cc(N2CCOC[C@H]2C)nc2c(-c3ccn[nH]3)nccc12 [Example 63, 2-[(3R)-3-methylmorpholin-4-yl]-4-(methylsulfanyl)-8-(1H-pyrazol-5-yl)-1,7-naphthyridine] |
| 506 | 844 |  | 1170 | 92.3 | C[C@@H]1COCCN1c1cc(N=S2(=O)CCOCC2)c2ccnc(-c3ccn[nH]3)c2n1 [Example 64, N-{2-[(3R)-3-methylmorpholin-4-yl]-8-(1H-pyrazol-5-yl)-1,7-naphthyridin-4-yl}-1,4λ^4-oxathian-4-imine 4-oxide] |
| 129 | > 3000 | 1010 | > 3000 | 516 | C[C@@H]1COCCN1c1cc(OCCCS(C)(=O)=O)c2ccnc(-c3ccn[nH]3)c2n1 [Example 197, 2-[(3R)-3-methylmorpholin-4-yl]-4-[3-(methylsulfonyl)propoxy]-8-(1H-pyrazol-5-yl)-1,7-naphthyridine] |
| 656 | 868 | 303 | 2300 | 93.7 | Cc1cc(S(C)(=O)=O)ncc1-c1cc(N2CCOC[C@H]2C)nc2c(-c3ccn[nH]3)nccc12 [Example 79, 4-[4-methyl-6-(methylsulfonyl)pyridin-3-yl]-2-[(3R)-3-methylmorpholin-4-yl]-8-(1H-pyrazol-5-yl)-1,7-naphthyridine] |
| 817 | 1720 | 1410 | > 3000 | 528 | CS(=O)(=O)c1cccc(-c2cc(N3CCOCC3)nc3c(-c4cc[nH]n4)nccc23)c1 [Example 15, 4-(3-methanesulphonylphenyl)-2-(morpholin-4-yl)-8-(1H-pyrazol-3-yl)-[1,7]naphthyridine] |
| 291 | 577 | 394 | 498 | 243 | C[C@@H]1COCCN1c1cc(C2CC2)c2ccnc(-c3cc[nH]n3)c2n1 [Example 29] |
| 325 | 2890 | 512 | > 3000 | 293 | C[C@@H]1COCCN1c1cc(-c2ccc(S(C)(=N)=O)cc2)c2ccnc(-c3ccn[nH]3)c2n1 (stereo partly drawn) [Example 30, 4-[2-((R)-3-methylmorpholin-4-yl)-8-(2H-pyrazol-3-yl)-[1,7]naphthyridine-4-yl]phenyl-S-methylsulphoximide] |
| 48.6 | 529 | 293 | 882 | 75.6 | C[C@@H]1COCCN1c1cc(C2(S(C)(=O)=O)CC2)c2ccnc(-c3ccn[nH]3)c2n1 [Example 286, 2-[(3R)-3-methylmorpholin-4-yl]-4-[1-(methylsulfonyl)cyclopropyl]-8-(1H-pyrazol-5-yl)-1,7-naphthyridine] |
| > 3000 | > 3000 | 872 | > 3000 | > 3000 | C[C@@H]1COCCN1c1cc(N2CCN(C)C(=O)C2)c2ccnc(-c3ccn[nH]3)c2n1 [Example 157, 1-methyl-4-{2-[(3R)-3-methylmorpholin-4-yl]-8-(1H-pyrazol-5-yl)-1,7-naphthyridin-4-yl}piperazin-2-one] |
|  | 3350 |  |  | 127 | C[C@@H]1COCCN1c1cc(N2CCNCC2)c2ccnc(-c3ccn[nH]3)c2n1 [Example 66, 2-[(3R)-3-methylmorpholin-4-yl]-4-(piperazin-1-yl)-8-(1H-pyrazol-5-yl)-1,7-naphthyridine] |
| 1840 | > 3000 | 1560 | > 3000 | > 3000 | CS(=O)(=O)c1cc(N2CCOCC2)nc2c(-c3cc[nH]n3)nccc12 [Example 32] |
| 1660 | > 3000 | 1010 | > 3000 | 1110 | O=S1(=O)CCCN1c1cc(N2CCOCC2)nc2c(-c3ccn[nH]3)nccc12 [Example 216, 4-(1,1-dioxido-1,2-thiazolidin-2-yl)-2-(morpholin-4-yl)-8-(1H-pyrazol-5-yl)-1,7-naphthyridine] |
| 725 | > 1000 | 296 | > 1000 | 586 | C[C@@H]1COCCN1c1cc(-c2ccc(S(C)(=O)=O)cc2)c2ccnc(-c3cc[nH]n3)c2n1 [Example 26, 4-(4-methanesulphonylphenyl)-2-((R)-3-methylmorpholin-4-yl)-8-(2H-pyrazol-3-yl)-[1,7]naphthyridine] |
| 2050 | > 3000 | 2260 | > 3000 | 909 | CS(=O)(=O)c1ccccc1-c1cc(N2CCOCC2)nc2c(-c3cc[nH]n3)nccc12 [Example 8, 4-(2-methanesulphonylphenyl)-2-(morpholin-4-yl)-8-(1H-pyrazol-3-yl)-[1,7]naphthyridine Hydrochloride] |
| 1350 | 833 |  | 3410 | 378 | CS(=O)(=O)c1ccc(-c2cc(N3CCOCC3)nc3c(-c4ccn[nH]4)nccc23)c(F)c1 [Example 24] |
|  | > 3000 | 731 | > 3000 |  | c1cc(-c2nccc3c(N4CCn5ccnc5C4)cc(N4CCOCC4)nc23)[nH]n1 [Example 169, 4-(5,6-dihydroimidazo[1,2-a]pyrazin-7(8H)-yl)-2-(morpholin-4-yl)-8-(1H-pyrazol-5-yl)-1,7-naphthyridine] |
| 1590 | 5950 | 1330 |  | 1020 | CS(=O)(=O)c1ccc(-c2cc(N3CCOCC3)nc3c(-c4cc[nH]n4)nccc23)cc1 [Example 7, 4-(4-methanesulphonylphenyl)-2-(morpholin-4-yl)-8-(1H-pyrazol-3-yl)-[1,7]naphthyridine] |
